Results taken from patent publication US20080255158A1, “Fungicidal Mixtures” (BASF Aktiengesellschaft, priority 2004, published 2008).

System: Cochliobolus miyabeanus
Experiment: Activity against brown spot of rice caused by Cochliobolus miyabeanus, protective application
Format: in vivo
Conditions: individual active compound, 16 ppm in the spray liquor, rice leaves, 6 days after inoculation
Procedure: The active compounds, separately or jointly, were prepared as a stock solution comprising 0.25% by weight of active compound in acetone or DMSO. 1% by weight of the emulsifier Uniperol® EL (wetting agent having emulsifying and dispersing action based on ethoxylated alkylphenols) was added to this solution, and the mixture was appropriately diluted with water to the desired concentration.
Use example—Activity against brown spot of rice caused by Cochliobolus miyabeanus, protective application
Leaves of rice seedlings of the cultivar “Tai-Nong 67” which had been grown in pots were sprayed to runoff point with an aqueous suspension having the concentration of active compound stated below. The next day, the plants were inoculated with an aqueous spore suspension of Cochliobolus miyabeanus. The test plants were then placed in climatized chambers at 22-24° C. and 95-99% relative atmospheric humidity for 6 days. The extent of the development of infection on the leaves was then determined visually.
Evaluation is carried out by determining the infected leaf areas in percent. These percentages were converted into efficacies.
The efficacy (E) is calculated as follows using Abbot's formula: […]
The expected efficacies of the mixtures of active compounds are determined using Colby's formula [R. S. Colby, Weeds, 15, 20-22 (1967)] and are compared with the observed efficacies. […]

How did the “Efficacy in % of the untreated control” value turn out when `CC1CCN(c2c(-c3c(F)cc(F)cc3F)c(Cl)nc3ncnn23)CC1` [compound I, 5-chloro-7-(4-methylpiperidin-1-yl)-6-(2,4,6-trifluorophenyl)[1,2,4]tri-azolo[1,5-a]pyrimidine] was run?
The value was 54%.
